{"source": "patent US6114326A", "about": "“Use of cabergoline in the treatment of restless legs syndrome” (priority 1999, dated 2000)", "key": {"[1]": {"tested_on": "restless legs syndrome patients", "assay": "Polysomnography in 12-week open label pilot trial of single evening cabergoline dose in RLS", "assay_type": "in vivo", "experimental": "Cabergoline in RLS, ENS, Nice, Abstract.\nEfficacy was assessed by polysomnography and subjective ratings.\n(§1) Following a 2-week baseline period, all patients were treated with cabergoline in an open trial for 12 weeks. Apart from levodopa, patients had to stop taking any medication known to have positive or negative effect on RLS two weeks before baseline (i.e., other dopamine agonists, benzodiazepines, opioids or other psychotropic agents). Patients who were on levodopa therapy were allowed to either stop levodopa prior to study entry or to continue, taper or discontinue levodopa during the study. To prevent well known peripheral dopaminergic side-effects such as nausea, vomiting, vertigo and arterial hypotension domperidone (not available in the United States) was comedicated initially and also tapered if possible. […] Neurological case history, examination, electrocardiogramm, chest x-ray and polysomnography were performed to ensure that selection criteria were fulfilled. A two-night PSG (including one night of adaptation) was performed to evaluate the diagnosis and inclusion/exclusion criteria regardless if patients were on or off levodopa. After a 12-week treatment period patients were studied again for one night in the sleep laboratory. Subjective ratings were obtained at baseline, week 4, week 8 and at the endpoint after 12 weeks. In addition patients were monitored by phone calls to note any adverse events and to determine whether to increase the dosage of the study drug, to decrease levodopa and to decrease domperidone. The time schedule of phone calls was variable and the frequency mostly dependent on the presence of simultaneous levodopa therapy.\nInclusion criteria. Patients were included if they fulfilled the minimal diagnostic criteria according to the International RLS Study Group. After rating clinical symptoms at baseline, patients were referred to polysomnography without any RLS specific treatment other than levodopa. Patients were included if they had more than five PLM per hour of time-in-bed (PLM index) and a sleep efficiency index (total sleep time per hour time-in-bed) of less than 85%.\nExclusion criteria. Patients with signs of any other sleep disorder on PSG, especially sleep apnea syndrome (respiratory disturbances index >5 per hour total sleep time), were excluded. Subjects receiving neuroleptic, antidepressant or other psychotropic medications or with any severe additional illness (with special consideration to pulmonary fibrosis) or drug abuse were also excluded. Patients with established or suspected hypersensitivity to ergot derivates and patients with clinical significant change in routine laboratory studies were not included. Pregnant or lactating women or women without safe contraception were not allowed to participate in this study.\nDosing. Study medication was available in tablets containing 0.5 mg, 1 mg or 2 mg Cabergoline (Cabaseril®, Pharmacia & Upjohn, Erlangen, Germany). Medication was taken 2 hours prior to bedtime. Initial therapy consisted of one 0.5 mg tablet. […] The increased dose could be decreased again if necessary. All patients were initially comedicated with domperidone 20 mg t.i.d. which could be tapered and stopped if possible. Subjects who were pretreated with levodopa were asked to decrease levodopa simultaneously if possible.\nPolysomnographic studies. At baseline and at the study end after 12 weeks PSG recordings were performed for one night (11 p.m.-7 a.m.) to evaluate inclusion/exclusion criteria and to obtain primary and secondary efficacy parameters. Studies included monitoring of electroencephalogram (EEG) (C3-A2, C4-A1), electrooculogram, chin EMG, EMG of both anterior tibialis muscles and electrocardiogram (ECG). PSG methods used standard procedures such as Pollmacher and Schultz. At baseline respiration, oronasal airflow, respiration effort and oxygen saturation were monitored by standard methods. Sleep scoring was also done by methods. […]"}, "[2]": {"tested_on": "restless legs syndrome patients", "assay": "Physician's rating (CGI) in 12-week open label trial", "assay_type": "in vivo", "experimental": "as §1\nPhysician's rating. The physician rated the severity of illness at baseline (normal to extremely ill), the global improvement (general condition very much worse to very much better) and the side effects by use of the Clinical Global Impressions (CGI). Safety. Safety of Cabergoline was assessed to the type and frequency of adverse event, clinically significant changes in laboratory data or ECG and premature discontinuation of study participation. Adverse events were classified as serious versus nonserious and characterized by intensity, relationship to drug treatment, frequency, course and therapeutic intervention.\nStatistical analysis. Statistical evaluation was performed as intent-to-treat analysis using descriptive statistics."}, "[3]": {"assay": "Half-life and duration of action", "assay_type": "in vivo", "settings": "'here we report'"}, "[4]": {"settings": "cited to Ahlskog et al. 1996; cited from earlier work"}, "D1 family of receptors": {"tested_on": "D1 family of receptors", "settings": "cited from earlier work"}, "[5]": {"tested_on": "D2 and D3 molecular receptors", "settings": "cited from earlier work"}}, "note": "Entries after “also recorded” stand apart in the source; their conditions may differ.", "data": [{"smiles": "C=CCN1C[C@H](C(=O)N(CCCN(C)C)C(=O)NCC)C[C@@H]2c3cccc4[nH]cc(c34)C[C@H]21", "note": "[Cabergoline, 1((6-allylergolin-8β-yl) -carbony.)-1-(3-(dimethylamino)propyl)-3-ethylurea]", "values": [{"measurement": "increase in total sleep time", "setting": "[1]; endpoint vs. baseline", "result": "more than one"}, {"measurement": "reduction of PLM during time in bed, PLM arousals and PLM awakenings (in words)", "setting": "[1]; endpoint vs. baseline", "result": "significant reduction"}, {"measurement": "sleep efficiency (in words)", "setting": "[1]; endpoint vs. baseline", "result": "increased"}, {"measurement": "sleep latency (in words)", "setting": "[1]; endpoint vs. baseline", "result": "shortened"}, {"measurement": "total sleep time (in words)", "setting": "[1]; endpoint vs. baseline", "result": "prolonged"}, {"measurement": "total number of PLM during time in bed (No. Of PLM)", "setting": "[1]; week 12, cabergoline monotherapy (mean 2.1 mg, single evening dose), baseline 195.8 ± 109.1", "result": "26.4±40.2"}, {"measurement": "number of PLM awakenings", "setting": "[1]; week 12, cabergoline monotherapy, baseline 9.6 ± 4.9", "result": "1.0±2.0"}, {"measurement": "PLM arousal index", "setting": "[1]; week 12, cabergoline monotherapy, baseline 10.4 ± 7.8", "result": "1.0±1.7 number of PLM arousals per hou"}, {"measurement": "PLM index", "setting": "[1]; week 12, cabergoline monotherapy, baseline 27.7 ± 17.1", "result": "3.6±5.3 number of PLM per hour time in"}, {"measurement": "Sleep Latency", "setting": "[1]; week 12, cabergoline monotherapy, baseline 42.4 ± 49.1", "result": "16.3 ± 22.8", "unit": "min"}, {"measurement": "PLM arousals", "setting": "[1]; week 12, cabergoline monotherapy, baseline 51.7 ± 42.3", "result": "6.4±11.2"}, {"measurement": "Sleep efficiency", "setting": "[1]; week 12, cabergoline monotherapy, baseline 63.1 ± 10.5", "result": "79.1±12.5", "unit": "%"}, {"measurement": "Total sleep time", "setting": "[1]; week 12, cabergoline monotherapy, baseline 302.7 ± 50.7", "result": "379.4 ± 59.8", "unit": "min"}, {"measurement": "global improvement (physician's rating, in words)", "setting": "[2]; in vivo", "result": "significant global improvement"}, {"measurement": "general condition minimally better (physician's rating), number of patients", "setting": "[2]; of 9 patients", "result": 1}, {"measurement": "general condition much better (physician's rating), number of patients", "setting": "[2]; of 9 patients", "result": 3}, {"measurement": "general condition very much better (physician's rating), number of patients", "setting": "[2]; of 9 patients", "result": 5}, {"measurement": "duration of action (may last)", "setting": "[3]", "result": "≤ 65", "unit": "h"}, {"measurement": "duration of action", "setting": "[4]", "result": "at least 24 hours"}, {"measurement": "D1 family activity (in words)", "setting": "D1 family of receptors", "result": "partial D1 activity; also recorded: partial DI family activity"}, {"measurement": "D2 versus D3 binding (in words)", "setting": "[5]", "result": "greater D2 over D3 binding"}]}]}
